Three molecules from EP2974721A1, “A PHARMACEUTICAL COMPOSITION COMPRISING A GAS GENERATING INGREDIENT” (Nanomega Medical Corporation, priority 2014, dated 2016) can be followed below.

In one assay the test system is Caco-2 cell monolayers. Description: Epithelial permeability: transmission of FITC-insulin across cell monolayers (fluorescence microscopy). As to conditions: cells co-cultured with the component; stained for Cld 4, E-cadherin, DAPI; result in words. The format is cell-based, human. The text has this:
Cell images of cells bound with nano/micro bubbles.
Enhanced epithelial permeability. Drug permeation may occur across the intestinal epithelium and through either transcellular or paracellular routes. To elucidate the precise mechanisms of interactions between the bubble carrier system and epithelial cells and its subsequent transport of the drug, the effects of DTPA and SDS on epithelial permeability were individually studied using Caco-2 cell monolayers. Monolayers of Caco-2 cells derived from human colorectal adenocarcinoma are widely used in in vitro models for predicting intestinal drug permeability.

Another assay relates to intestinal proteases. Description: Inhibition of proteolytic degradation of insulin in isolated proximal small intestine (duodenum). The format is biochemical. Particulars: added to insulin; duodenum freshly isolated from rats; result in words. The text has this:
Inhibition of proteolytic degradation. Inhibiting the proteolytic degradation of insulin in the intestinal fluid and the mucosal layer is critical for increasing its oral bioavailability. The inhibiting effects of DTPA and SDS on intestinal proteases were separately studied in in vitro studies of the proximal portion of the small intestine (i.e., the duodenum) freshly isolated from rats. The various digestive enzymes secreted from the pancreas into the duodenum are well-recognized. […] Insulin is highly sensitive to trypsin and chymotrypsin, which are Ca^2+-dependent enzymes in the intestinal fluid and in the mucosal layer. One strategy for inhibiting intestinal protease activities is using complexing agents such as DTPA to remove essential metal ions (e.g., Ca^2+) from the enzyme structure at vicinity of the bioactive agent. […] Proposed molecular mechanisms of proteolytic inhibition by SDS include local conformational changes or altered charge distributions of the proteases induced by their specific binding of SDS.

Turning to `O=C(O)CN(CCN1CC(=O)OC(=O)C1)CCN1CC(=O)OC(=O)C1` [DTPA dianhydride, diethylenetriaminepentaacetic dianhydride], in the assay with Caco-2 cell monolayers, the “transmission of FITC-insulin (pathway)” value is given as “promote transmission of FITC-insulin via paracellular pathway”.

`O=C(O)CN(CCN(CC(=O)O)CC(=O)O)CCN(CC(=O)O)CC(=O)O` [DTPA, diethylene triamine pentaacetic acid]: in the assay on intestinal proteases, the “protective effect on insulin against the intestinal proteases” value is listed as “strong protective effect”. Turning to `CCCCCCCCCCCCOS(=O)(=O)[O-].[Na+]` [SDS, sodium dodecyl sulfate], the “protective effect on insulin against the intestinal proteases” value in the assay on intestinal proteases is reported as “strong protective effect”. The “transmission of FITC-insulin (pathway)” value with Caco-2 cell monolayers was “promote transmission of FITC-insulin via both of paracellular pathway and transcellular pathway”.
